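Interpolation was linear, between the two tested concentrations surrounding the appropriate level; five concentrations were tested over 48 hours in 96-well plates. GI50 is the concentration that inhibits growth by half.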 Active and inactive are the calls of the source. Cut-off read from the data, not from the text of the source: active = GI50 up to about 1.1 µM and inactive = higher.
Key:
Experiment in all cases: growth of human tumour cells (NCI), 48 h
HCT-15 = tested on: HCT-15
KM12 = tested on: KM12
OVCAR-4 = tested on: OVCAR-4
LOX IMVI = tested on: LOX IMVI
MDA-MB-231 = tested on: MDA-MB-231
HT-29 = tested on: HT-29
UACC-257 = tested on: UACC-257
NCI-H460 = tested on: NCI-H460
MDA-MB-435 = tested on: MDA-MB-435
SK-MEL-2 = tested on: SK-MEL-2
SW-620 = tested on: SW-620
SF-539 = tested on: SF-539
HOP-92 = tested on: HOP-92
RXF 393 = tested on: RXF 393
SF-268 = tested on: SF-268
EKVX = tested on: EKVX
A549 = tested on: A549
Malme-3M = tested on: Malme-3M
OVCAR-8 = tested on: OVCAR-8
ACHN = tested on: ACHN

SMILES | GI50 (HCT-15) [µM] | GI50 (KM12) | GI50 (OVCAR-4) | GI50 (LOX IMVI) | GI50 (MDA-MB-231) | GI50 (HT-29) | GI50 (UACC-257) | GI50 (NCI-H460) | GI50 (MDA-MB-435) | GI50 (SK-MEL-2) | GI50 (SW-620) | GI50 (SF-539) | GI50 (HOP-92) | GI50 (RXF 393) | GI50 (SF-268) | GI50 (EKVX) | GI50 (A549) | GI50 (Malme-3M) | GI50 (OVCAR-8) | GI50 (ACHN)
O=C(/C=C/c1ccccc1)CCN1CCN(CCC(=O)/C=C/c2ccccc2)CC1 | 10.9 | 4.82 µM (inactive) | 16.5 µM (inactive) | 2.38 µM (inactive) | 5.5 µM (inactive) | 14.3 µM (inactive) | 11.5 µM (inactive) | 15.2 µM (inactive) | 3.72 µM (inactive) | 17.9 µM (inactive) | 4.67 µM (inactive) | 14.9 µM (inactive) | 19.6 µM (inactive) | 13.7 µM (inactive) | 13.8 µM (inactive) | 18.6 µM (inactive) | 30.9 µM (inactive) | 16.2 µM (inactive) | 16.3 µM (inactive) | 16 µM (inactive)
OC(Cc1cnnc2ccccc12)C(Cl)(Cl)Cl (stereo not given) | > 10 | > 10 µM (inactive) | > 10 µM (inactive) | > 10 µM (inactive) | > 10 µM (inactive) | > 10 µM (inactive) | > 10 µM (inactive) | > 10 µM (inactive) | > 10 µM (inactive) | > 10 µM (inactive) | > 10 µM (inactive) | > 10 µM (inactive) | > 10 µM (inactive) | > 10 µM (inactive) | > 10 µM (inactive) | > 10 µM (inactive) | > 10 µM (inactive) | > 10 µM (inactive) | > 10 µM (inactive) | > 10 µM (inactive)
CCOC(=O)N1CCC2(CC1)C[C@](Sc1ccccc1)(C(C)=O)[C@H](C)O2 | > 100 | > 100 µM (inactive) | > 100 µM (inactive) | > 100 µM (inactive) | > 100 µM (inactive) | > 100 µM (inactive) | > 100 µM (inactive) | > 100 µM (inactive) | > 100 µM (inactive) | > 100 µM (inactive) | > 100 µM (inactive) | > 100 µM (inactive) | > 100 µM (inactive) | > 100 µM (inactive) | > 100 µM (inactive) | > 100 µM (inactive) | > 100 µM (inactive) | > 100 µM (inactive) | > 100 µM (inactive) | > 100 µM (inactive)
CN(C)CC1CC/C(=C\c2ccc3c(c2)OCO3)C1=O (stereo not given) | 6.67 | 6.79 µM (inactive) | 9.29 µM (inactive) | 1.95 µM (inactive) | 2.38 µM (inactive) | 14.5 µM (inactive) | 8.97 µM (inactive) | 19.5 µM (inactive) | 1.93 µM (inactive) | 13 µM (inactive) | 6.4 µM (inactive) | 16.3 µM (inactive) | 15.1 µM (inactive) | 15.7 µM (inactive) | 11.2 µM (inactive) | 18.9 µM (inactive) | 28.2 µM (inactive) | 9.46 µM (inactive) | 8.61 µM (inactive) | 13.9 µM (inactive)
CC(C)NC(=O)OCc1c(COC(=O)NC(C)C)c(-c2ccc[n+](COC(=O)CC(C)(C)C)c2)n2c1CCC2 | > 100 | > 100 µM (inactive) | > 100 µM (inactive) | 78.3 µM (inactive) | > 100 µM (inactive) | > 100 µM (inactive) | > 100 µM (inactive) | 51.5 µM (inactive) | > 100 µM (inactive) | > 100 µM (inactive) | > 100 µM (inactive) | 84.9 µM (inactive) | > 100 µM (inactive) | 38.7 µM (inactive) | 54 µM (inactive) | > 100 µM (inactive) | > 100 µM (inactive) | > 100 µM (inactive) | 81.3 µM (inactive) | 35.6 µM (inactive)
O=C1OC(OC/C(Br)=C(\Br)COC2OC(=O)C(Cl)=C2Cl)C(Cl)=C1Cl (stereo not given) | 2.8 | 15.2 µM (inactive) | 7.6 µM (inactive) | 2.58 µM (inactive) | 4.74 µM (inactive) | 2.55 µM (inactive) | 9.68 µM (inactive) | 13.2 µM (inactive) | 7.24 µM (inactive) | 19.5 µM (inactive) | 2.39 µM (inactive) | 6.89 µM (inactive) | 1.05 µM (active) | 2.39 µM (inactive) | 8.43 µM (inactive) | 9.57 µM (inactive) | 14.9 µM (inactive) | 2.55 µM (inactive) | 2.4 µM (inactive) | 5.97 µM (inactive)
Nc1nc(N)c2cc(-c3ccccc3)cnc2n1 | 27.4 | 16.5 µM (inactive) | 13.9 µM (inactive) | 12.4 µM (inactive) | 7.89 µM (inactive) | 8.55 µM (inactive) | 14.2 µM (inactive) | 10.8 µM (inactive) | > 10 µM (inactive) | 33 µM (inactive) | 9.84 µM (inactive) | 14.7 µM (inactive) | 12.2 µM (inactive) | 8.65 µM (inactive) | 2.75 µM (inactive) | 16.9 µM (inactive) | 9.44 µM (inactive) | 8.99 µM (inactive) | 15.4 µM (inactive) | 12.9 µM (inactive)
CCOP(=O)(OCC)/C(C#N)=C/c1ccnc2ccccc12 | 21.3 | 27.2 µM (inactive) | 32.6 µM (inactive) | 31.6 µM (inactive) | 24.9 µM (inactive) | 19.7 µM (inactive) | 51.3 µM (inactive) | 43.6 µM (inactive) | 16.4 µM (inactive) | 25 µM (inactive) | 27.3 µM (inactive) | 26.5 µM (inactive) | 18.4 µM (inactive) | 23.2 µM (inactive) | 18.4 µM (inactive) | 53.3 µM (inactive) | > 100 µM (inactive) | 14 µM (inactive) | 15 µM (inactive) | 43.6 µM (inactive)
S=c1[nH]c2ccc(Br)cc2c(=S)s1 | 29.5 | 29.4 µM (inactive) | 10.8 µM (inactive) | 32.4 µM (inactive) | 22.8 µM (inactive) | 24.4 µM (inactive) | 23.5 µM (inactive) | 22.1 µM (inactive) | 23.2 µM (inactive) | 20.6 µM (inactive) | 30.8 µM (inactive) | 34.4 µM (inactive) | 16.6 µM (inactive) | 27.6 µM (inactive) | 34.4 µM (inactive) | 27.8 µM (inactive) | 30.6 µM (inactive) | 33.3 µM (inactive) | 31.6 µM (inactive) | 22.2 µM (inactive)
CC1=C(/C=C/C(C)=C/C=C/C(C)=C/C(=O)OCC2OC(n3cc(F)c(=O)[nH]c3=O)CC2OC(=O)/C=C(C)/C=C/C=C(C)/C=C/C2=C(C)CCCC2(C)C)C(C)(C)CCC1 (stereo not given) | 13.2 | 23.9 µM (inactive) | > 32.1 µM (inactive) | 3.48 µM (inactive) | 30.1 µM (inactive) | 11.2 µM (inactive) | 9.23 µM (inactive) | 0.0659 µM (active) | 13.3 µM (inactive) | 58.6 µM (inactive) | 12.1 µM (inactive) | 0.314 µM (active) | 1.25 µM (inactive) | 22.3 µM (inactive) | 0.618 µM (active) | > 54.3 µM (inactive) | 0.402 µM (active) | 7.43 µM (inactive) | 1.71 µM (inactive) | 0.418 µM (active)
O=C(O)c1ccccc1Sc1ccccc1[N+](=O)[O-] | > 100 | > 100 µM (inactive) | > 100 µM (inactive) | > 100 µM (inactive) | > 100 µM (inactive) | > 100 µM (inactive) | > 100 µM (inactive) | > 100 µM (inactive) | > 100 µM (inactive) | > 100 µM (inactive) | > 100 µM (inactive) | > 100 µM (inactive) | > 100 µM (inactive) | > 100 µM (inactive) | > 100 µM (inactive) | > 100 µM (inactive) | > 100 µM (inactive) | > 100 µM (inactive) | > 100 µM (inactive) | > 100 µM (inactive)
N#Cc1ccc(C2ON=C(c3ccccc3)N2C23CC4CC(CC(C4)C2)C3)cc1 (stereo not given) | > 10 | > 10 µM (inactive) | > 10 µM (inactive) | > 10 µM (inactive) | > 10 µM (inactive) | > 10 µM (inactive) | > 10 µM (inactive) | > 10 µM (inactive) | > 10 µM (inactive) | > 10 µM (inactive) | > 10 µM (inactive) | > 10 µM (inactive) | > 10 µM (inactive) | > 10 µM (inactive) | > 10 µM (inactive) | > 10 µM (inactive) | > 10 µM (inactive) | > 10 µM (inactive) | > 10 µM (inactive) | > 10 µM (inactive)
